From ChEMBL document CHEMBL1126503, “Syntheis of TRP-VAL non-cleavable dipeptide transition state isosteres” (Bioorg Med Chem Lett, 1993) come the findings set out here.

Activity calls are given as the source filed them. The calls are words filed in the database; no cut-off is given here.

The assay concerns Endothelial cell. The assay is described as follows: Tested for inhibition of Endothelin-converting enzyme derived from bovine endothelial cell; NA means inactive uM. The assay is classed as cell-based.
In the case of `CC(C)/C(=C/C(=O)[C@H](Cc1c[nH]c2ccccc12)NC(=O)OC(C)(C)C)C(=O)O`, the inhibition entry was “inactive”. Take `CCOC(=O)/C(=C/C(=O)[C@H](Cc1c[nH]c2ccccc12)NC(=O)OC(C)(C)C)C(C)C`: the inhibition entry was “inactive”.

Regarding `COC(=O)[C@@H](NC(=O)[C@H](CC(N)=O)NC(=O)/C(=C\C(=O)[C@H](Cc1c[nH]c2ccccc12)NC(=O)OC(C)(C)C)C(C)C)C(C)C(=O)C(C)(C)C` (stereo partly drawn), the inhibition result was “inactive”.
